Source: ChEMBL document CHEMBL5131500, “High Plasticity of the Amicetin Biosynthetic Pathway in Streptomyces sp. SHP 22-7 Led to the Discovery of Streptcytosine P and Cytosaminomycins F and G and Facilitated the Production of 12F-Plicacetin” (J Nat Prod, 2022)

Tests used:
Type in all cases: functional
Pseudomonas aeruginosa = assay: Antibacterial activity against Pseudomonas aeruginosa ATCC 27853 assessed as bacterial growth inhibition incubated over night by two-fold serial dilution method
Candida albicans = assay: Antifungal activity against Candida albicans Tu01 assessed as fungal growth inhibition incubated for 48 hrs by broth microdilution method
Nakaseomyces glabratus = assay: Antifungal activity against Candida glabrata Tu04 assessed as fungal growth inhibition incubated for 48 hrs by broth microdilution method
Enterococcus faecium = assay: Antibacterial activity against Enterococcus faecium BM4147-1 assessed as bacterial growth inhibition incubated over night by two-fold serial dilution method
Staphylococcus aureus [1] = assay: Antibacterial activity against Staphylococcus aureus ATCC 29213 assessed as bacterial growth inhibition incubated over night by two-fold serial dilution method
Klebsiella pneumoniae = assay: Antibacterial activity against Klebsiella pneumoniae ATCC 12657 assessed as bacterial growth inhibition incubated over night by two-fold serial dilution method
Klebsiella aerogenes = assay: Antibacterial activity against Enterobacter aerogenes ATCC 13048 assessed as bacterial growth inhibition incubated over night by two-fold serial dilution method
Acinetobacter baumannii = assay: Antibacterial activity against Acinetobacter baumannii 09987 assessed as bacterial growth inhibition incubated over night by two-fold serial dilution method
Escherichia coli [2] = assay: Antibacterial activity against Escherichia coli ATCC 25922 assessed as bacterial growth inhibition incubated over night by two-fold serial dilution method
Bacillus subtilis = assay: Antibacterial activity against Bacillus subtilis 168 assessed as bacterial growth inhibition incubated over night by two-fold serial dilution method
Staphylococcus aureus [3] = assay: Antibacterial activity against Staphylococcus aureus NCTC 8325 assessed as bacterial growth inhibition incubated over night by two-fold serial dilution method
[4] = tested on: Mycolicibacterium smegmatis; assay: Antibacterial activity against Mycobacterium smegmatis mc2 155 assessed as bacterial growth inhibition incubated over night by two-fold serial dilution method
HeLa = assay: Cytotoxicity against human HeLa cells assessed as reduction in cell viability after 24 hrs by resazurin dye based assay
[5] = tested on: Mycobacterium tuberculosis; assay: Antitubercular activity against Mycobacterium tuberculosis H37Rv ATCC 25618 assessed as bacterial growth inhibition incubated for 7 days by resazurin microtiter assay; conditions: H37Rv ATCC 25618, 168 h, time 7 day
Escherichia coli [6] = assay: Antimicrobial activity against Escherichia coli MRE600 assessed as inhibition of translation using luciferin as substrate incubated for 2 hrs by chemiluminescence based cell free assay; conditions: MRE600, 2 h

CC(C)CC(=O)Nc1ccn([C@H]2CC[C@H](O)[C@@H](C)O2)c(=O)n1
> 32 µg/mL: MIC (Pseudomonas aeruginosa) | MIC (Candida albicans) | MIC (Nakaseomyces glabratus) | MIC (Enterococcus faecium) | MIC (Staphylococcus aureus [1]) | MIC (Klebsiella pneumoniae) | MIC (Klebsiella aerogenes) | MIC (Acinetobacter baumannii) | MIC (Escherichia coli [2]) | MIC (Bacillus subtilis) | MIC (Staphylococcus aureus [3]) | MIC [4]
> 64 µg/mL: IC50 (HeLa)

CC(C)=CC(=O)Nc1ccn([C@H]2CC[C@H](O)[C@@H](C)O2)c(=O)n1
> 32 µg/mL: MIC (Pseudomonas aeruginosa) | MIC (Candida albicans) | MIC (Nakaseomyces glabratus) | MIC (Enterococcus faecium) | MIC (Staphylococcus aureus [1]) | MIC (Klebsiella pneumoniae) | MIC (Klebsiella aerogenes) | MIC (Acinetobacter baumannii) | MIC (Escherichia coli [2]) | MIC (Bacillus subtilis) | MIC (Staphylococcus aureus [3]) | MIC [4]
> 64 µg/mL: IC50 (HeLa)

C[C@H]1O[C@H](O[C@H]2CC[C@H](n3ccc(NC(=O)c4ccc(N)cc4)nc3=O)O[C@@H]2C)[C@H](O)[C@@H](O)[C@@H]1N(C)C
16 µg/mL: IC50 (HeLa)
16 µM: MIC95 [5]
32 µg/mL: MIC (Bacillus subtilis)
2 µg/mL: MIC [4]
12 µg/mL: IC50 (Escherichia coli [6])
> 32 µg/mL: MIC (Pseudomonas aeruginosa) | MIC (Candida albicans) | MIC (Nakaseomyces glabratus) | MIC (Enterococcus faecium) | MIC (Staphylococcus aureus [1]) | MIC (Klebsiella pneumoniae) | MIC (Klebsiella aerogenes) | MIC (Acinetobacter baumannii) | MIC (Escherichia coli [2]) | MIC (Staphylococcus aureus [3])

CC(=O)C(C)Nc1ccc(C(=O)Nc2ccn([C@H]3CC[C@H](O[C@H]4O[C@H](C)[C@@H](N(C)C)[C@H](O)[C@H]4O)[C@@H](C)O3)c(=O)n2)cc1 (stereo not given in full)
13 µg/mL: IC50 (Escherichia coli [6])
32 µM: MIC95 [5]
> 32 µg/mL: MIC (Pseudomonas aeruginosa) | MIC (Candida albicans) | MIC (Nakaseomyces glabratus) | MIC (Enterococcus faecium) | MIC (Staphylococcus aureus [1]) | MIC (Klebsiella pneumoniae) | MIC (Klebsiella aerogenes) | MIC (Acinetobacter baumannii) | MIC (Escherichia coli [2]) | MIC (Bacillus subtilis) | MIC (Staphylococcus aureus [3])
16 µg/mL: IC50 (HeLa)
2 µg/mL: MIC [4]

CC(C)=CC(=O)Nc1ccn([C@H]2CC[C@H](O[C@H]3O[C@H](C)[C@@H](N(C)C)[C@H](O)[C@H]3O)[C@@H](C)O2)c(=O)n1
2 µg/mL: IC50 (HeLa)
32 µg/mL: MIC (Bacillus subtilis)
> 32 µg/mL: MIC (Pseudomonas aeruginosa) | MIC (Candida albicans) | MIC (Nakaseomyces glabratus) | MIC (Enterococcus faecium) | MIC (Staphylococcus aureus [1]) | MIC (Klebsiella pneumoniae) | MIC (Klebsiella aerogenes) | MIC (Acinetobacter baumannii) | MIC (Escherichia coli [2]) | MIC (Staphylococcus aureus [3])
4 µg/mL: MIC [4]
32 µM: MIC95 [5]
1.6 µg/mL: IC50 (Escherichia coli [6])

CC[C@H](C)C(=O)Nc1ccn([C@H]2CC[C@H](O)[C@@H](C)O2)c(=O)n1
> 32 µg/mL: MIC (Pseudomonas aeruginosa) | MIC (Candida albicans) | MIC (Nakaseomyces glabratus) | MIC (Enterococcus faecium) | MIC (Staphylococcus aureus [1]) | MIC (Klebsiella pneumoniae) | MIC (Klebsiella aerogenes) | MIC (Acinetobacter baumannii) | MIC (Escherichia coli [2]) | MIC (Bacillus subtilis) | MIC (Staphylococcus aureus [3]) | MIC [4]
> 64 µg/mL: IC50 (HeLa)

C[C@H]1O[C@H](O[C@H]2CC[C@H](n3ccc(NC(=O)c4ccc(N)c(F)c4)nc3=O)O[C@@H]2C)[C@H](O)[C@@H](O)[C@@H]1N(C)C
> 64 µg/mL: IC50 (HeLa)
> 32 µg/mL: MIC (Pseudomonas aeruginosa) | MIC (Candida albicans) | MIC (Nakaseomyces glabratus) | MIC (Enterococcus faecium) | MIC (Staphylococcus aureus [1]) | MIC (Klebsiella pneumoniae) | MIC (Klebsiella aerogenes) | MIC (Acinetobacter baumannii) | MIC (Escherichia coli [2]) | MIC (Bacillus subtilis) | MIC (Staphylococcus aureus [3])

CS/C=C/C(=O)Nc1ccn([C@H]2CC[C@H](O[C@H]3O[C@H](C)[C@@H](N(C)C)[C@H](O)[C@H]3O)[C@@H](C)O2)c(=O)n1
16 µg/mL: MIC (Staphylococcus aureus [1]) | MIC (Staphylococcus aureus [3])
8 µg/mL: MIC (Bacillus subtilis)
> 32 µg/mL: MIC (Pseudomonas aeruginosa) | MIC (Candida albicans) | MIC (Nakaseomyces glabratus) | MIC (Enterococcus faecium) | MIC (Klebsiella pneumoniae) | MIC (Klebsiella aerogenes) | MIC (Acinetobacter baumannii) | MIC (Escherichia coli [2])
8 µM: MIC95 [5]
4 µg/mL: MIC [4]
1 µg/mL: IC50 (HeLa) | IC50 (Escherichia coli [6])

CC[C@H](C)CCC(=O)Nc1ccn([C@H]2CC[C@H](O[C@H]3O[C@H](C)[C@@H](N(C)C)[C@H](O)[C@H]3O)[C@@H](C)O2)c(=O)n1
> 32 µg/mL: MIC (Pseudomonas aeruginosa) | MIC (Candida albicans) | MIC (Nakaseomyces glabratus) | MIC (Enterococcus faecium) | MIC (Staphylococcus aureus [1]) | MIC (Klebsiella pneumoniae) | MIC (Klebsiella aerogenes) | MIC (Acinetobacter baumannii) | MIC (Escherichia coli [2]) | MIC (Bacillus subtilis) | MIC (Staphylococcus aureus [3])
16 µg/mL: MIC [4]
9.5 µg/mL: IC50 (Escherichia coli [6])
> 64 µg/mL: IC50 (HeLa)
